Test results reported in patent US8778896B2, “Levoisovalerylspiramycin I, II or III, preparations, preparation methods and uses thereof” (Shenyang Tonglian Group Co., Ltd., priority 2010, dated 2014).

Assays:
[1] = system: streptococcus pneumoniae18; experiment: Curative effect on mouse with abdominal infection (ED50); assay type: in vivo, streptococcus pneumoniae; conditions: streptococcus pneumoniae18, challenging dose 9.6 × 10^4 CFU/0.5 ml, deaths in 7 days, Bliss
Description: (§1) Test method: preparation of infection bacterial liquid: taking out the test bacterial liquid which is kept in a refrigerator at −80[…] to room temperature for about 1 h, then inoculating streptococcus pneumonia, pyogenic streptococcus and enterococcus absorbing 0.1 ml bacterial liquid respectively to 2 ml MH broth (add 10% inactivated horse serum), and inoculating 0.1 ml bacterial liquid of staphylococcus aureus to 2 ml MH broth according to the same method above; putting it in an incubator at 37[…] to be cultivated for 18 h, to obtain original bacterial liquid; diluting the original bacterial liquid with 5% gastric mucin to make animals infected with 100% lethal bacteria, to obtain infection bacterial liquid.
(§2) The clinical route of administration of carrimycin is proposed to be oral administration, thus intragastric administration is adopted in carrimychin test. Levoisovalerylspiramycin I (obtained in Embodiment 1) and of crystalline compound of levoisovalerylspiramycin I (prepared in Embodiment 27) are fed to animals via […].
(§3) After the mice are infected, respectively feed each mouse 0.2 ml via intragastric administration at 0.5 to 6 h, and they have no adverse reaction. Observe the number of deaths in 7 days, and calculate the 50% effective dose (ED50) of each drug for the infected mouse and compare the protective effect of drugs by Bliss program.

[2] = system: streptococcus pneumoniae3; experiment: as above; assay type: in vivo, streptococcus pneumoniae; conditions: streptococcus pneumoniae3, challenging dose 6.4 × 10^4 CFU/0.5 ml, deaths in 7 days, Bliss
Description: as §1, §2, §3

[3] = system: streptococcus pneumoniae57; experiment: as above; assay type: in vivo, streptococcus pneumoniae; conditions: streptococcus pneumoniae57, challenging dose 8.8 × 10^4 CFU/0.5 ml, deaths in 7 days, Bliss
Description: as §1, §2, §3

[4] = system: pyogenic streptococcus 102; experiment: as above; assay type: in vivo; conditions: pyogenic streptococcus 102, challenging dose 7.8 × 10^4 CFU/0.5 ml, deaths in 7 days, Bliss
Description: as §1, §2, §3

[5] = system: pyogenic streptococcus 119; experiment: as above; assay type: in vivo; conditions: pyogenic streptococcus 119, challenging dose 4.9 × 10^4 CFU/0.5 ml, deaths in 7 days, Bliss
Description: as §1, §2, §3

[6] = system: pyogenic streptococcus 772; experiment: as above; assay type: in vivo; conditions: pyogenic streptococcus 772, challenging dose 6.9 × 10^3 CFU/0.5 ml, deaths in 7 days, Bliss
Description: as §1, §2, §3

[7] = system: enterococcus32; experiment: as above; assay type: in vivo, enterococcus; conditions: enterococcus32, challenging dose 5.4 × 10^4 CFU/0.5 ml, deaths in 7 days, Bliss
Description: as §1, §2, §3

[8] = system: staphylococcus aureus12; experiment: as above; assay type: in vivo, staphylococcus aureus; conditions: staphylococcus aureus12, challenging dose 4.8 × 10^4 CFU/0.5 ml, deaths in 7 days, Bliss
Description: as §1, §2, §3

[9] = system: staphylococcus aureus16; experiment: as above; assay type: in vivo, staphylococcus aureus; conditions: staphylococcus aureus16, challenging dose 5.2 × 10^3 CFU/0.5 ml, deaths in 7 days, Bliss
Description: as §1, §2, §3

[10] = system: staphylococcus aureus21; experiment: as above; assay type: in vivo, staphylococcus aureus; conditions: staphylococcus aureus21, challenging dose 4.2 × 10^4 CFU/0.5 ml, deaths in 7 days, Bliss
Description: as §1, §2, §3

[11] = system: staphylococcus aureus76; experiment: as above; assay type: in vivo, staphylococcus aureus; conditions: staphylococcus aureus76, challenging dose 5.8 × 10^4 CFU/0.5 ml, deaths in 7 days, Bliss
Description: as §1, §2, §3

[12] = system: 12 strains of bacteria; experiment: Protective effect on mouse infected with 12 strains of bacteria; assay type: in vivo; conditions: in words
Description: as §1, §2, §3

[13] = system: streptococcus pneumoniae3; experiment: MIC against the infecting test organism; assay type: cell-based, streptococcus pneumoniae
[14] = system: streptococcus pneumoniae18; experiment: MIC against the infecting test organism; assay type: cell-based, streptococcus pneumoniae
[15] = system: streptococcus pneumoniae57; experiment: MIC against the infecting test organism; assay type: cell-based, streptococcus pneumoniae
[16] = system: pyogenic streptococcus 772; experiment: MIC against the infecting test organism; assay type: cell-based
[17] = system: pyogenic streptococcus 102; experiment: MIC against the infecting test organism; assay type: cell-based
[18] = system: pyogenic streptococcus 119; experiment: MIC against the infecting test organism; assay type: cell-based
[19] = system: enterococcus32; experiment: MIC against the infecting test organism; assay type: cell-based, enterococcus
[20] = system: staphylococcus aureus16; experiment: MIC against the infecting test organism; assay type: cell-based, staphylococcus aureus
[21] = system: staphylococcus aureus76; experiment: MIC against the infecting test organism; assay type: cell-based, staphylococcus aureus
[22] = system: staphylococcus aureus12; experiment: MIC against the infecting test organism; assay type: cell-based, staphylococcus aureus
[23] = system: staphylococcus aureus21; experiment: MIC against the infecting test organism; assay type: cell-based, staphylococcus aureus
[24] = system: streptococcus pneumoniae (112); experiment: Clinical isolates, agar double dilution method; assay type: cell-based
[25] = system: pyogenic streptococcus (93); experiment: Clinical isolates, agar double dilution method; assay type: cell-based
[26] = system: enterococcus (106); experiment: Clinical isolates, agar double dilution method; assay type: cell-based
[27] = system: staphylococcus aureus (155); experiment: Clinical isolates, agar double dilution method; assay type: cell-based
[28] = system: S. epidermidis (115); experiment: Clinical isolates, agar double dilution method; assay type: cell-based
[29] = system: hemophilus influenzae (37); experiment: Clinical isolates, agar double dilution method; assay type: cell-based
[30] = system: gonococcus (10); experiment: Clinical isolates, agar double dilution method; assay type: cell-based
[31] = system: Chlamydia Trachomatis B/TW-5/OT; experiment: Chlamydia in vitro MIC, McCoy cells, immunofluorescence; assay type: cell-based; conditions: 48 hours
[32] = system: Chlamydia Trachomatis D/UW-3/Cx; experiment: as above; assay type: cell-based; conditions: 48 hours
[33] = system: Chlamydia Pneumoniae CWL-029; experiment: Chlamydia in vitro MIC, HEp-2 cells, immunofluorescence; assay type: cell-based; conditions: Chlamydia Pneumoniae CWL-029, HEp-2 cells, 72 hours
[34] = system: Mycoplasma Urealyticum and Mycoplasma Pneumoniae strains; experiment: Mycoplasma in vitro MIC (U-PPLO broth); assay type: cell-based; conditions: determined 4 times, final MIC (24 h)
Description: 1. Test methods: adding U-PPLO 0.8 ml to each pore of aseptic 12-pore cell culture plate (adding 0.9 ml to inoculum control pore and 1.0 ml to medium control pore).
2. Add 10^4CCU/ml Uu inoculum 0.1 ml to each experimental pore. The final dose in the pore is 10^3CCU/ml (the medium control pore will not be added with inoculum).
3. Divide into 3 groups (100 μg/ml, 10 μg/ml and 1 μg/ml antibiotic stock solution), Use aseptic Tip to add antibiotic for test to each pore: 100 μl, 50 μl, 25 μl, 12.5 μl according to the double degradation concentration gradient. (The inoculum and medium control pores will not be added with the antibiotic, and meanwhile the antibiotic control pore is arranged.)
4. Blend all pores evenly. Seal the culture plate by tapes and place it in a 37[…] box for culture.
5. On 17-24 hours after the test, observe and record the Uu growth situation. When Uu inoculum control pore presents a positive growth, the minimal antibiotic concentration, which can suppress the growth of Uu, is the MIC of sample.

[35] = in vivo; cited from earlier work

In the case of `COC1C(OC(C)=O)CC(=O)OC(C)C/C=C/C=C/C(OC2CCC(N(C)C)C(C)O2)C(C)CC(CC=O)C1OC1OC(C)C(OC2CC(C)(O)C(OC(=O)CC(C)C)C(C)O2)C(N(C)C)C1O` (stereo not drawn) [crystal of isovalerylspiramycin II, levoisovalerylspiramycin II], the ED50 [1] is reported as 8.09 mg/kg, the ED50 [2] is reported as 7.69 mg/kg and the ED50 [3] is reported as 12.04 mg/kg. The ED50 [4] was 58.00 mg/kg, the ED50 [5] was 49.94 mg/kg and the ED50 [6] was 21.90 mg/kg. For the same compound, the ED50 [7] was 56.16 mg/kg, the ED50 [8] was 104.67 mg/kg and the ED50 [9] was 16.18 mg/kg. For the same compound, the ED50 ([10]; listed as crystal of isovalcrylspiramycin II) was 36.09 mg/kg, the ED50 [11] was 18.71 mg/kg and the “protective effect (curative effect) on infected mouse” value (“protective effect (curative effect)” below) [12] was “good protective effect”.
acetyl spiramycin [reference compound] showed an ED50 [1] of 37.93 mg/kg, an ED50 [2] of 66.96 mg/kg and an ED50 [3] of 398.01 mg/kg. It also gave an ED50 [4] of 227.07 mg/kg, an ED50 [5] of 117.53 mg/kg and an ED50 [6] of 98.11 mg/kg. For the same compound, the ED50 [7] was 130.34 mg/kg, the ED50 [8] was greater than 500 mg/kg and the ED50 [9] was 43.58 mg/kg. The ED50 [10] was greater than 500 mg/kg, the ED50 [11] was 66.63 mg/kg and the MIC [13] was 0.5 µg/mL. It also gave an MIC [14] of 0.06 µg/mL, an MIC [15] of 1 µg/mL and an MIC [16] of 0.25 µg/mL. The MIC [17] was 0.5 µg/mL, the MIC [18] was 0.5 µg/mL and the MIC [19] was 1 µg/mL. For the same compound, the MIC [20] was 1 µg/mL, the MIC [21] was 1 µg/mL and the MIC [22] was 2048 µg/mL. The MIC [23] was 2048 µg/mL, the MIC50 [24] was 0.12 µg/mL and the MIC90 [24] was greater than 64 µg/mL. For the same compound, the MIC50 [25] was 0.25 µg/mL, the MIC90 [25] was greater than 64 µg/mL and the MIC50 [26] was 4 µg/mL. The MIC90 [26] was greater than 64 µg/mL, the MIC50 [27] was 64 µg/mL and the MIC90 [27] was greater than 64 µg/mL. The MIC50 [28] was 64 µg/mL, the MIC90 [28] was greater than 64 µg/mL and the MIC50 [29] was 0.12 µg/mL. It also gave an MIC90 [29] of 4 µg/mL, an MIC50 [30] of 4 µg/mL and an MIC90 [30] of 8 µg/mL. It also gave an MIC range [30] of 0.12 to 64 µg/mL, an MIC [31] of 4 µg/mL and an MIC [32] of 2 µg/mL. The MIC [33] was 0.5 µg/mL and the MIC [34] was 0.5 µg/mL.
For `COC1C(O)CC(=O)OC(C)C/C=C/C=C/C(OC2CCC(N(C)C)C(C)O2)C(C)CC(CC=O)C1OC1OC(C)C(OC2CC(C)(O)C(OC(=O)CC(C)C)C(C)O2)C(N(C)C)C1O` (stereo not drawn) [crystal of isovalerylspiramycin I, levoisovalerylspiramycin I], the ED50 [1] was 8.65 mg/kg, the ED50 [2] was 8.39 mg/kg and the ED50 [3] was 12.82 mg/kg. The ED50 [4] was 60.99 mg/kg, the ED50 [5] was 54.58 mg/kg and the ED50 [6] was 23.37 mg/kg. For the same compound, the ED50 [7] was 62.11 mg/kg, the ED50 [8] was 107.46 mg/kg and the ED50 [9] was 21.33 mg/kg. For the same compound, the ED50 [10] was 38.00 mg/kg, the ED50 [11] was 22.26 mg/kg and the “protective effect (curative effect)” value ([12]; listed as crystalline compound of isovalerylspiramycin I) was “better protective effect”.
In the case of spiramycin, the “absolute bioavailability by oral administration” value [35] is given as 30˜40%.
Compound `CCC(=O)OC1CC(=O)OC(C)C/C=C/C=C/C(OC2CCC(N(C)C)C(C)O2)C(C)CC(CC=O)C(OC2OC(C)C(OC3CC(C)(O)C(OC(=O)CC(C)C)C(C)O3)C(N(C)C)C2O)C1OC` (stereo not drawn) [crystal of isovalerylspiramycin III, levoisovalerylspiramycin III] has an ED50 [1] of 8.68 mg/kg, an ED50 [2] of 6.45 mg/kg and an ED50 [3] of 11.08 mg/kg. It also gave an ED50 [4] of 52.91 mg/kg, an ED50 ([5]; listed as crystal of isovaletylspiramycin III) of 49.94 mg/kg and an ED50 [6] of 22.81 mg/kg. For the same compound, the ED50 [7] was 65.89 mg/kg, the ED50 [8] was 105.24 mg/kg and the ED50 [9] was 19.29 mg/kg. For the same compound, the ED50 [10] was 36.09 mg/kg, the ED50 [11] was 18.71 mg/kg and the “protective effect (curative effect)” value [12] was “good protective effect”.
